Results: patent publication US5583227A, “Antiulcer compounds having a substituted alkynyl or quinoxaline nucleus and methods of making thereof” (Mochida Pharmaceutical Co. Ltd., priority 1994, dated 1996)

What was measured:
Acute toxicity test = conditions: mouse, in vivo; oral, mice, one week observation
Description: (Test Example 6) Acute toxicity test
Each of the compounds shown in Examples was orally administered to three ICR male mice per group.

[1] = tested on: ulcer induced by 0.15N hydrochloric acid and 60% ethanol; assay: Cell protection effect (hydrochloric acid/ethanol-induced ulcer); type: in vivo, Wistar male rats; conditions: Rattus norvegicus, 1 h; oral, 30 minutes before 0.15N HCl / 60% ethanol 5 ml/kg
Experimental: (Test Example 5) Cell protection effect
Basically according to the method of Mizui and Doteuchi (Japan. J. Pharmacol., vol.33, pp.939-945, 1983), each of the compounds shown in Examples was orally administered to Wistar male rats which have been subjected to fasting of 24 hours (free drinking). After 30 minutes of the compound administration, a mixture solution of 0.15N hydrochloric acid and 60% ethanol was orally administered at a dose of 5 ml/kg. After 1 hour of standing, the stomach was excised. The length (mm) of each ulcer developed in the stomach was measured under a stereoscopic microscope to calculate the total length of ulcers per animal as an ulcer index. The dose of each test compound required to inhibit 50% of the ulcer index of the control group was calculated (ED50).

Pylorus ligation ulcer = assay: Pylorus ligation ulcer; type: in vivo, Wistar male rats; conditions: Rattus norvegicus; oral, 14 hours after pylorus ligation; read-out: Antiulcer activity, Pylorus ligation ulcer, ED50 value
Experimental: (Test Example 4) Pylorus ligation ulcer
Basically according to the method of Shay et al. (Gastroenterology, vol.5, pp.43-61, 1945), each of the compounds shown in Examples was orally administered to Wistar male rats which have been subjected to fasting of 48 hours (free drinking). After 30 minutes of the compound administration,the pylorus of each rat was ligated.
After 14 hours of standing, the stomach was excised. The length and width of each ulcer developed in the fore-stomach part were measured under a stereoscopic microscope to calculate the ulcer area (length×width). In accordance with the method of Takagi et al. (Japan. J. Pharmacol., vol.24, pp.357-361, 1974), ulcer index was calculated based on the total ulcer area per animal. The dose of each test compound required to inhibit 50% of the ulcer index of the control group was calculated (ED50).

Stress ulcer = assay: Stress ulcer; type: in vivo, Wistar male rats; conditions: Rattus norvegicus; oral, 7 hours stress loading in water bath at 23° C.; read-out: Antiulcer activity, Stress ulcer, ED50 value
Experimental: (Test Example 3) Stress ulcer
Basically according to the method of Takagi et al. (Japanese Journal of Pharmacology (to be referred to as "Japan. J. Pharmacol." hereinafter), vol.18, pp.9-18, each of the compounds shown in Examples was orally administered to Wistar male rats which have been subjected to fasting of 24 hours (free drinking). Each rat was transferred into a stress cage 30 minutes thereafter and subjected to stress loading by suspending the cage in a water bath controlled at 23° C. to such a depth that the rat was soaked up to its breast.
After 7 hours of the stress loading, the rat was recovered from the water bath to excise the stomach. The length (mm) of each ulcer developed in the stomach was measured under a stereoscopic microscope, and the total length of ulcers per one animal was used as an ulcer index. The dose of each test compound required to inhibit 50% of the ulcer index of the control group was calculated (ED50). The results are shown in Table 3, together with the results of the following pylorus ligation ulcer test.

[2] = biological target: T1, H^+,K^+ adenosine triphosphatase (Sus scrofa, UniProt P19156); assay: H+,K+ adenosine triphosphatase inhibition (proton pump inhibition); type: biochemical, hog; conditions: H+,K+ ATPase fraction from hog stomach microsomes, ATP substrate, released inorganic phosphorus; read-out: Enzyme inhibition IC50 value (converted)
T1 construct: hog stomach was homogenized and subjected to ultracentrifugation to obtain a microsome fraction; from tissue; host or cells: hog stomach, microsome fraction (discontinuous Ficoll gradient)
Experimental: Proton pump inhibition was evaluated by the H^+,K^+ adenosine triphosphatase (to be referred to as "H^+,K^+ ATPase" hereinafter)inhibition.
That is, hog stomach was homogenized and subjected to ultracentrifugation to obtain a microsome fraction, and the microsomes were subjected to discontinuous density gradient ultracentrifugation using 0 and 9% Ficoll solutions to obtain a fraction containing H^+,K^+ ATPase. The H^+,K^+ ATPase activity was determined by measuring the released inorganic phosphorus using ATP as the substrate and an inorganic phosphorus measuring reagent PiSET(IATRON) manufactured by IATRON.

gastric acid secretion = assay: Gastric acid secretion inhibition activity (pylorus-ligated, histamine-stimulated rats); type: in vivo, Sprague-Dawley (SD) male rats; conditions: Rattus norvegicus; 30 mg/kg oral; pylorus ligated 3 hours later; histamine hydrochloride 30 mg/kg s.c.; total acidity over 3 hours; read-out: Acid secretion inhibition rate (%)
Experimental: (Test Example 2) Gastric acid secretion inhibition activity
Basically according to the method of Satoh et (Journal of Pharmacology and Experimental Therapeutics, vol.248, pp.806-815, 1988), each of the compounds shown in Examples was orally administered at a dose of 30 mg/kg to Sprague-Dawley (SD) male rats which have been subjected to fasting of 24 hours (free drinking).
After 3 hours of the compound administration, the pylorus of each rat was ligated under urethane anesthesia, and 30 mg of histamine hydrochloride per Kg was administered to the rat by subcutaneous injection. After 3 hours of the ligation, the gastric juice was collected to measure its volume and calculate total acidity (mEqH^+ /3 hours) by sodium hydroxide titration. The inhibition rate (%) was calculated by the following formula in which A represents the total gastric juice acidity of control group rat and B represents the total gastric juice acidity of test compound-administered group rat. [formula]

T1 sequence (P19156 2-1034 limits assumed): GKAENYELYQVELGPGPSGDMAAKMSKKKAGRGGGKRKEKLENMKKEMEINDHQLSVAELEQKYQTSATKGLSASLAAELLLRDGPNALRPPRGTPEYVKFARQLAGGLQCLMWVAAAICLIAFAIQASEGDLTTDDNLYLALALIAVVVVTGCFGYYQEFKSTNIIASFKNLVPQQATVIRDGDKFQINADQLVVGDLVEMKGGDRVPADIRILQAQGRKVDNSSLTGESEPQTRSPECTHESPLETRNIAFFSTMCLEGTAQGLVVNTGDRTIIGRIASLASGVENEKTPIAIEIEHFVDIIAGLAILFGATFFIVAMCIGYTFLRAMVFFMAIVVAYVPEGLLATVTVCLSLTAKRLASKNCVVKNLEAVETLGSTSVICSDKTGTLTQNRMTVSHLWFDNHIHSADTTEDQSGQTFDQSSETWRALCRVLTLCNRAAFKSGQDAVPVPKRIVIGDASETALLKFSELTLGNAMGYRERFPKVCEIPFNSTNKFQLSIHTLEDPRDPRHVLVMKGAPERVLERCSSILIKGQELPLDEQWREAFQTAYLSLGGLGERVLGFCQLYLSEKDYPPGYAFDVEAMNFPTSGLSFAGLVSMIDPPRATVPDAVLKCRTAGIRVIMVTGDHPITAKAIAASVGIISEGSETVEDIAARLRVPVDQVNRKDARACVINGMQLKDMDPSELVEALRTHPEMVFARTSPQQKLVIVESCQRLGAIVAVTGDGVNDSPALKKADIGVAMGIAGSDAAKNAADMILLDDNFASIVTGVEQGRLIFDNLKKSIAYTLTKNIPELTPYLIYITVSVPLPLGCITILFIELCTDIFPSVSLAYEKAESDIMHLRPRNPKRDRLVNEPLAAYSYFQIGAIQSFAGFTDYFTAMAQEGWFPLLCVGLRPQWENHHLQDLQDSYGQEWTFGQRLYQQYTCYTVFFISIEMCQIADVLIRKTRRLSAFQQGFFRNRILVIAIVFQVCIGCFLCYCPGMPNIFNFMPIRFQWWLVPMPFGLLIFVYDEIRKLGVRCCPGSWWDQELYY
T1 sequence (P18434 whole entry partner): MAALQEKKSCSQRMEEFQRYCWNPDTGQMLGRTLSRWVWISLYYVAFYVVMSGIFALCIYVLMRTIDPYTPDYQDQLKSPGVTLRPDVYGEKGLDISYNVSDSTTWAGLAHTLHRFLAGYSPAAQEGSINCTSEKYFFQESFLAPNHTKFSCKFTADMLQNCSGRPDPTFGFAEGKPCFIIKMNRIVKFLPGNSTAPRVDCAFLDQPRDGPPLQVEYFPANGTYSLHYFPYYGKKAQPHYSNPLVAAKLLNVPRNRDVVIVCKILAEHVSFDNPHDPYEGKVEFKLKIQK

Compound | LD50 at 168 h (Acute toxicity test) [mg/kg] | ED50 [1] [mg/kg] | ED50 (Pylorus ligation ulcer) [mg/kg] | ED50 (Stress ulcer) [mg/kg] | IC50 [2] [µM] | inhibition in vivo at 30 mg/kg (gastric acid secretion) [%]
COCC#Cc1nc(C#N)c(C#N)nc1C#CCOC [Example 7, 5,6-bis(3-methoxy-1-propynyl)-2,3-dicyanopyrazine] | > 1000 | 1.2 | 1.2 | 5.6 | 1.88 | 
CCOC(C)C#Cc1nc2ccccc2nc1C#CC(C)OCC (stereo not shown) [Example 10, 2,3-bis(3-ethoxy-1-butynyl)quinoxaline] |  | 1.9 | 11 | 15 | 96.2 | 38
CCC(C#Cc1nc2ccccc2nc1C#CC(CC)OC)OC (stereo not shown) [Example 11, 2,3-bis(3-methoxy-1-pentynyl)quinoxaline] | > 1000 | 41 | 35 |  | 30.4 | 27
COCCOC(C)(C)C#Cc1nc2ccccc2nc1C#CC(C)(C)OCCOC [Example 43, 2,3-bis(3-(2-methoxyethoxy)-3-methyl-1-butynyl)quinoxaline] | > 1000 | 13 |  |  |  | 
CCOCCOC(C)(C)C#Cc1nc2ccccc2nc1C#CC(C)(C)OCCOCC [Example 44, 2,3-bis(3-(2-ethoxyethoxy)-3-methyl-1-butynyl)quinoxaline] | > 1000 | 13 |  | 59 | 88.9 | 
COC(C)(C)C#Cc1nc2ccccc2nc1C#CC(C)(C)OC [Example 114] | > 1000 | 22 |  |  | 93 | 30
CCC(C#Cc1nc2ccccc2nc1C#CC(CC)OCCOC)OCCOC (stereo not shown) [Example 116] | > 1000 | 2.7 |  | 39 | 188 | 32
CCOCCOC(C#Cc1nc2ccccc2nc1C#CC(CC)OCCOCC)CC (stereo not shown) [Example 117] | > 1000 | 8 | 28 | 6.1 | 123 | 35
CCC(C#Cc1nc2ccccc2nc1C#CC(CC)OCCOC(C)C)OCCOC(C)C (stereo not shown) [Example 119] |  | 22 |  |  | 11.1 | 
CCC(C#Cc1nc2ccc(C=O)cc2nc1C#CC(CC)OCCOC)OCCOC (stereo not shown) [Example 138] |  | 9.8 |  |  | 10.7 | 
